According to the NIST ThermoML archive (doi:10.1016/j.jct.2008.11.012):

Legend:
[1] = 101 kPa, Liquid; for viscosity: Concentric cylinders viscometry; for mass density: Vibrating tube method
[2] = xn = mol fraction of the nth substance listed; conditions: 101 kPa, Liquid, x2 = 0; for viscosity: Concentric cylinders viscometry; for mass density: Vibrating tube method

NCCNCCN [di(2-aminoethyl)amine]
[1]
Conditions	mass density [kg/m3]	viscosity [mPa·s]
293.15 K	951	7.038
303.15 K	942.3	4.804
313.15 K	933.8	3.4
323.15 K	925.5	2.695
333.15 K	917	2.109
343.15 K	908.9	1.703
353.15 K	900.4	1.409
363.15 K	891.9	1.19

O [water]
[1]
Conditions	mass density [kg/m3]	viscosity [mPa·s]
293.15 K	999.2	1.006
303.15 K	996.5	0.7988
313.15 K	993	0.6546
323.15 K	988.7	0.5427
333.15 K	983.7	0.4596
343.15 K	978.3	0.4271
353.15 K	972.3	0.3731
363.15 K	965.9	0.2983

O [water] + NCCNCCN
[2]
Conditions	mass density [kg/m3]	viscosity [mPa·s]
293.15 K	999.2	1.006
303.15 K	996.5	0.7988
313.15 K	993	0.6546
323.15 K	988.7	0.5427
333.15 K	983.7	0.4596
343.15 K	978.3	0.4271
353.15 K	972.3	0.3731
363.15 K	965.9	0.2983
